Experimental data from patent US20100168079A1 (priority 2008, published 2010).

Legend:
human S1P1 receptors = target: T1, human S1P1 receptors (Homo sapiens, UniProt P21453); assay: Human S1P1 Receptor Calcium FLIPR Antagonist Assay (HeLa Gα16 S1P1); format: cell-based; conditions: relative antagonism of Ca2+ signal evoked by probing agonist GNF-AC-1 at EC80; HeLa-S1P1/Gα16 cells
T1 construct: myc (N); expressed in transfected cells; host or cells: HeLa (human cervix carcinoma, ATCC CCL2), HeLa-S1P1/Gα16 cell clone 1
Method in brief: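 HeLa Gα16 cells expressing S1P1 loaded for calcium fluorescence on FLIPR; compounds added in HBSS with 0.1% BSA, then agonist at EC80 20-30 min later. IC50 from (Fmax-Fmin)/Fmin versus log compound concentration.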

circulating lymphocytes = assay: Measurement of Circulating Lymphocytes; format: in vivo, Rats (Lewis strain, male); conditions: Rattus norvegicus, Lymphocyte; male Lewis rats, 14 hours after oral 30 mg/kg, compared to vehicle-only group; mean±SEM; read-out: Residual Lymphocyte Counts 14 hours after 30 mg/kg p.o. dosing
Procedure: The compounds of formula (I) typically induce the depletion of blood lymphocyte as may be determined in the assay described below. Moreover, compounds of formula (I) are typically efficacious in the said assay also when administered via the per oral route of administration.
Measurement of Circulating Lymphocytes:
The test compounds (or salts thereof) are dissolved in a vehicle such as water, saline, PEG (polyethylene glycol) 200, or PBS (phosphate buffered saline). Rats (Lewis strain, male, 6-12 weeks old) are administered up to 100 mg/kg of the test compounds in 2 ml/kg vehicle via per oral or subcutaneous application. The vehicle or a reference salt and FTY720 (0.3 mg/kg) are included as negative and positive controls, respectively.
Blood is collected from the sublingual vein before and 2, 8 and 24 hours or 14, 18 and 24 hours after the test compound administration under short isoflurane anesthesia. Whole blood samples are subjected to hematology analysis. Peripheral lymphocyte counts are determined using an automated analyzer. The Haemathology System uses a combination of light scatter, cytochemical staining and nuclear density on two independent channels to measure the total and differential white cell counts. Two to four rats are used to assess the lymphocyte depletion activity of each compound screened. The data are presented as mean±SEM.

T1 sequence (P21453 whole entry): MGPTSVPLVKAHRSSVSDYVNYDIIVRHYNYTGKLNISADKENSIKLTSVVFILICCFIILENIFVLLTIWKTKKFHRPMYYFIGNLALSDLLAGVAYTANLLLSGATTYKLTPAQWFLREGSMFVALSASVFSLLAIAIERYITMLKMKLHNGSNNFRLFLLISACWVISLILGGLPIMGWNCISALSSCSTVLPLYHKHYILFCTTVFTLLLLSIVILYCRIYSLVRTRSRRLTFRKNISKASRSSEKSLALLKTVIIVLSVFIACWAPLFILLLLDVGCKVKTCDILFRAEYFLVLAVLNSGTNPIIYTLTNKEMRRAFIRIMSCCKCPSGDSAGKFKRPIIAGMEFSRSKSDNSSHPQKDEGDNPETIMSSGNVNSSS

Row | SMILES | IC50 (human S1P1 receptors) | response vs control in vivo at 30 mg/kg (circulating lymphocytes)
1 | Cc1cc(C(C)Nc2ccc(F)c(-c3cc(C)c(C(=O)N[C@@H](C)C(=O)O)c(C)c3)c2)ccc1Cl (stereo partly drawn) [Example 22, (S)-2-({5′-[1-(4-Chloro-3-methyl-phenyl)-ethylamino]-2′-fluoro-3,5-dimethyl-biphenyl-4-carbonyl}-amino)-propionic acid] | 2 nM | 18.7%
2 | CCC(Nc1ccc(F)c(-c2cc(C)c(C(=O)N[C@@H](C)C(=O)O)c(C)c2)c1)c1ccc(Cl)c(C)c1 (stereo partly drawn) [Example 24, (S)-2-({5′-[1-(4-Chloro-3-methyl-phenyl)-propylamino]-2′-fluoro-3,5-dimethyl-biphenyl-4-carbonyl}-amino)-propionic acid] | 1 nM | 16.8%
3 | CC[C@@H](Nc1ccc(F)c(-c2cc(C)c(C(=O)NC3(C(=O)O)CC3)c(C)c2)c1)c1ccc(Cl)c(C)c1 [Example 115, 1-({5′-[(R)-1-(4-Chloro-3-methyl-phenyl)-propylamino]-2′-fluoro-3,5-dimethyl-biphenyl-4-carbonyl}-amino)-cyclopropanecarboxylic acid] | 2 nM | 15.8%
4 | Cc1cc([C@@H](C)Nc2cccc(-c3cc(C)c(C(=O)N[C@@H](C)C(=O)O)c(C)c3)c2)cc(C)c1Cl [Example 100, (S)-2-({3′-[(R)-1-(4-Chloro-3,5-dimethyl-phenyl)-ethylamino]-3,5-dimethyl-biphenyl-4-carbonyl}-amino)-propionic acid] | 1 nM | 20.9%
5 | Cc1cc(C(C)Nc2cccc(-c3cc(C)c(C(=O)NC4(C(=O)O)CC4)c(C)c3)c2)ccc1Cl (stereo not drawn) [Example 7, 1-({3′-[1-(4-Chloro-3-methyl-phenyl)-ethylamino]-3,5-dimethyl-biphenyl-4-carbonyl}-amino)-cyclopropanecarboxylic acid] | 2 nM | 14.8%
6 | CC[C@@H](Nc1cccc(-c2cc(C)c(C(=O)NC3(C(=O)O)CC3)c(C)c2)c1)c1ccc(Cl)c(C)c1 [Example 109, 1-({3′-[(R)-1-(4-Chloro-3-methyl-phenyl)-propylamino]-3,5-dimethyl-biphenyl-4-carbonyl}-amino)-cyclopropanecarboxylic] | 2 nM | 19.1%
7 | CC[C@H](c1ccc(Cl)c(C)c1)N(C)c1cccc(-c2cc(C)c(C(=O)NC3(C(=O)O)CC3)c(C)c2)c1 [Example 108, 1-[(3′-{[(R)-1-(4-Chloro-3-methyl-phenyl)-propyl]-methyl-amino}-3,5-dimethyl-biphenyl-4-carbonyl)-amino]-cyclopropanecarboxylic acid] | 8 nM | 19.6%
8 | Cc1cc([C@H](Nc2cccc(-c3cc(C)c(C(=O)N[C@@H](C)C(=O)O)c(C)c3)c2)C(F)(F)F)ccc1Cl [Example 106, (S)-2-({3′-[(S)-1-(4-Chloro-3-methyl-phenyl)-2,2,2-trifluoro-ethylamino]-3,5-dimethyl-biphenyl-4-carbonyl}-amino)-propionic acid] | 2 nM | 10.9%
9 | Cc1cc([C@@H](C)Nc2cccc(-c3cc(C)c(C(=O)N(C)[C@@H](C)C(=O)O)c(C)c3)c2)ccc1Cl [Example 73] | 4 nM | 16.6%
10 | CC[C@H](c1ccc(Cl)c(C)c1)N(C)c1cccc(-c2cc(C)c(C(=O)N(C)[C@@H](C)C(=O)O)c(C)c2)c1 [Example 105, (S)-2-[(3′-{[(R)-1-(4-Chloro-3-methyl-phenyl)-propyl]-methyl-amino}-3,5-dimethyl-biphenyl-4-carbonyl)-methyl-amino]-propionic acid] | 10 nM | 20.9%
11 | CC[C@@H](Nc1cccc(-c2cc(C)c(C(=O)N[C@@H](C)C(=O)O)c(C)c2)c1)c1ccc(Cl)c(C)c1 [Example 6, (S)-2-({3′-[(R)-1-(4-Chloro-3-methyl-phenyl)-propylamino]-3,5-dimethyl-biphenyl-4-carbonyl}-amino)-propionic acid] | 2 nM | 15.9%
12 | Cc1cc(C(C)(C)Nc2cccc(-c3cc(C)c(C(=O)NC4(C(=O)O)CC4)c(C)c3)c2)ccc1Cl [Example 84, 1-({3′-[1-(4-Chloro-3-methyl-phenyl)-1-methyl-ethylamino]-3,5-dimethyl-biphenyl-4-carbonyl}-amino)-cyclopropanecarboxylic acid] | 2 nM | 18.6%
13 | Cc1cc(C(C)(C)Nc2cccc(-c3cc(C)c(C(=O)N[C@@H](C)C(=O)O)c(C)c3)c2)ccc1Cl [Example 82, (S)-2-({3′-[1-(4-Chloro-3-methyl-phenyl)-1-methyl-ethylamino]-3,5-dimethyl-biphenyl-4-carbonyl}-amino)-propionic acid] | 3 nM | 10.8%
14 | Cc1cc(C(Nc2cccc(-c3cc(C)c(C(=O)N[C@@H](C)C(=O)O)c(C)c3)c2)C(F)(F)F)ccc1Cl (stereo partly drawn) [Example 74, (S)-2-({3′-[1-(4-Chloro-3-methyl-phenyl)-2,2,2-trifluoro-ethylamino]-3,5-dimethyl-biphenyl-4-carbonyl}-amino)-propionic acid] | 8 nM | 15.5%
15 | Cc1cc([C@@H](C)Nc2cccc(-c3cc(C)c(C(=O)N(C)C4(C(=O)O)CC4)c(C)c3)c2)ccc1Cl [Example 81, 1-({3′-[(R)-1-(4-Chloro-3-methyl-phenyl)-ethylamino]-3,5-dimethyl-biphenyl-4-carbonyl}-methyl-amino)-cyclopropanecarboxylic acid] | 1 nM | 15.4%
16 | Cc1cc(C(C)(C)Nc2cccc(-c3cc(C)c(C(=O)N(C)C4(C(=O)O)CC4)c(C)c3)c2)ccc1Cl [Example 85, 1-({3′-[1-(4-Chloro-3-methyl-phenyl)-1-methyl-ethylamino]-3,5-dimethyl-biphenyl-4-carbonyl}-methyl-amino)-cyclopropanecarboxylic acid] | 11 nM | 14.7%
17 | CC[C@@H](Nc1ccc(F)c(-c2cc(C)c(C(=O)N(C)[C@@H](C)C(=O)O)c(C)c2)c1)c1ccc(Cl)c(C)c1 [Example 117, (S)-2-({5′-[(R)-1-(4-Chloro-3-methyl-phenyl)-propylamino]-2′-fluoro-3,5-dimethyl-biphenyl-4-carbonyl}-methyl-amino)-propionic acid] | 2 nM | 15%
18 | Cc1cc([C@@H](C)Nc2cccc(-c3cc(C)c(C(=O)NC4(C(=O)O)CC4)c(C)c3)c2)ccc1Cl [Example 8, 1-({3′-[(R)-1-(4-Chloro-3-methyl-phenyl)-ethylamino]-3,5-dimethyl-biphenyl-4-carbonyl}-amino)-cyclopropanecarboxylic acid] | 2 nM | 16.7%
19 | Cc1cc(C(Nc2cccc(-c3cc(C)c(C(=O)N(C)[C@@H](C)C(=O)O)c(C)c3)c2)C(F)F)ccc1Cl (stereo partly drawn) [Example 103, (S)-2-({3′-[1-(4-Chloro-3-methyl-phenyl)-2,2-difluoro-ethylamino]-3,5-dimethyl-biphenyl-4-carbonyl}-methyl-amino)-propionic acid] | 3 nM | 13.9%
20 | CCC(Nc1cccc(-c2cc(C)c(C(=O)N[C@@H](C)C(=O)O)c(C)c2)c1)c1ccc(Cl)c(Cl)c1 (stereo partly drawn) [Example 20, (S)-2-({3′-[1-(3,4-Dichloro-phenyl)-propylamino]-3,5-dimethyl-biphenyl-4-carbonyl}-amino)-propionic acid] | 8 nM | 18.7%
21 | CCC(Nc1ccc(F)c(-c2cc(C)c(C(=O)NC3(C(=O)O)CC3)c(C)c2)c1)c1ccc(Cl)c(C)c1 (stereo not drawn) [Example 25, 1-({5′-[1-(4-Chloro-3-methyl-phenyl)-propylamino]-2′-fluoro-3,5-dimethyl-biphenyl-4-carbonyl}-amino)-cyclopropanecarboxylic acid] | 2 nM | 15%
